{"source": "patent US5885782A", "about": "“Synthetic antibiotics” (priority 1997, dated 1999)", "key": {"[1]": {"system": "Fusarum oxysporum f. sp. lycopersici race 1, strain RMI", "assay": "Checkerboard combination of peptide with antifungal agent (Limpel method), Fusarium", "assay_type": "cell-based, Fusarium oxysporum", "set-up": "key to Expected Inhibition (Limpel formula): expected % inhibition, Ec = X + Y - XY/100 (Limpel)", "method": "(§1) Antimicrobial peptides were mixed with known antifungal compounds according to the checkerboard method of Eliopoulos and Moellering, 1991 and the effect of these mixtures was determined.\n(§2) The checkerboard method requires serial dilutions of two antimicrobial compounds in concentration ranges spanning the minimal inhibitory concentrations (MICs) of the compounds. Synergism, antagonism, or additivity of the drug combinations was by measured by determining the antimicrobial effect of the various dilutions of the two drugs. Synergism existed when the antimicrobial effect of a mixture was greater than the sum of the independent antimicrobial effects of its combined components. Additivity was indicated when the antimicrobial effect of a drug combination was simply the sum of the independent antimicrobial effects. Antagonism existed when the antimicrobial effect of a mixture of drugs was less than the sum of the independent antimicrobial effects of the separate drugs.\nFrozen glycerol stocks of F. oxysporum f. sp. lycopersici microconidia were used for the bioassays. Microconidia or spores were thawed on ice, washed 2× in PDB, and diluted in 2× PDB to obtain the appropriate inoculum concentration for the assay. The 2× PDB was employed for the dilutions to obtain a final concentration of I× PDB in each test well. Microtiter plates were incubated without shaking, in the dark, at 250 C. Absorbance readings were recorded at 24 hr intervals for 72 h. To follow growth in the microtiter plates, an EMAX PRECISION MICROPLATE READER (Molecular Devices Corp., Menlo Park, Calif.) attached to a HEWLETT-PACKARD THINK-JET (Hewlett-Packard Company, Vancouver, Wash.) printer was used to obtain the absorbance (at 595 run) readings. All test combinations were performed in triplicate. Sterile, disposable, flat bottom, polystyrene, 96~well (with lid) microtiter plates (Corning Glass Works, Scientific Products Division, Corning, N.Y.) were used to conduct the assays. The initial concentration of peptide FRLKFH-NH2 (Seq. ID No.34), peptide FRLKFHI-NH2 (Seq. ID No.40), nystatin (5.13 units/ug), and miconazole used in the assay series were 26, 60, 88, and 60 ug/ml, respectively. The checkerboard was setup as described by Eliopoulos and Moellering, 1991. Once the checkerboard mixtures were prepared 50 ul of inoculum […] was added to each of the wells. F. oxysporum f. sp. lycopersici microconidia were produced using FLC medium. Esposito, R. and Fletcher, A. M. 1961. A 4 mm square of an actively growing culture was taken from PDA to 50 ml of FLC broth in a sterile 250 ml screwcap flask. The culture was incubated with shaking […] at 250 C. After 96 h, the slurry of mycelia and microconidia was filtered twice through 3 layers of sterile cheesecloth to obtain the microconidial suspension. The microconidial suspension was adjusted to a concentration of 1-5×10^7 microconidial/ml using a Brightlme hemacytometer (Hausser Scientific, Horsham, Pa.) and stored frozen in I ml aliquots in 20% sterile glycerol at -80C.\n(§3) Synergism between known antifungal compounds and antifungal peptides was also studied using the method of Limpel as described by Richer. Richer, D. L. 1987. The methodology of Limpel is described by the equation: […]\n(§4) Where Ec is the expected additive effect of two antifungal agents, X is the observed percentage inhibition of the test organism when antifungal agent A is applied alone at the rate used in the mixture, and Y is the observed percentage inhibition of the test organism when antifungal agent B is used alone at the rate used in the mixture. […] Richer, D. L. 1987.\n(§5) Experimental studies were set up using the checkerboard method as described by Eliopoulos and Moellering, 1991. The observed inhibitory effects of the antifungal agent and peptide combinations were measured as described above and compared with Ec as calculated from the Limpel formula."}, "Aspergillus paraciticus": {"system": "Aspergillus paraciticus", "assay": "Checkerboard combination of peptide with antifungal agent (Limpel method), Aspergillus paraciticus", "assay_type": "cell-based", "method": "as §1, §2, §3, §4, §5"}, "Aspergillus fumigatus": {"system": "Aspergillus fumigatus", "assay": "Checkerboard combination of peptide with antifungal agent (Limpel method), Aspergillus fumigatus", "assay_type": "cell-based", "method": "as §1, §2, §3, §4, §5"}, "[2]": {"conditions": "Nystatin 0 ug/ml, Peptide 0.6 ug/ml"}, "[3]": {"conditions": "Nystatin 0 ug/ml, Peptide 1.3 ug/ml"}, "[4]": {"conditions": "Nystatin 0 ug/ml, Peptide 2.5 ug/ml"}, "[5]": {"conditions": "Nystatin 0 ug/ml, Peptide 5 ug/ml"}, "[6]": {"conditions": "Nystatin 0.3 ug/ml, Peptide 0 ug/ml"}, "[7]": {"conditions": "Nystatin 0.6 ug/ml, Peptide 0 ug/ml"}, "[8]": {"conditions": "Nystatin 1.3 ug/ml, Peptide 0 ug/ml"}, "[9]": {"conditions": "Nystatin 2.5 ug/ml, Peptide 0 ug/ml"}, "[10]": {"conditions": "Nystatin 5 ug/ml, Peptide 0 ug/ml"}, "[11]": {"conditions": "Nystatin 10 ug/ml, Peptide 0 ug/ml"}, "[12]": {"conditions": "Nystatin 20 ug/ml, Peptide 0 ug/ml"}}}
{"molecule": "FRLKFHI [D- amino acid heptapeptide FRLKFHI-NH2]", "values": [{"measurement": "interaction with amphotericin B (observed vs expected inhibition)", "setting": "[1]; peptide 0.9-7.0 ug/ml, amphotericin B 0.9-7.5 ug/ml, Fusarium oxysporum, Table XV", "value": "synergism"}, {"measurement": "interaction with fluconazole (observed vs expected inhibition)", "setting": "[1]; peptide 1.3-20 ug/ml, fluconazole 28.7-229.5 ug/ml, Fusarium oxysporum, Table XXVII", "value": "synergism"}, {"measurement": "interaction with miconazole (observed vs expected inhibition)", "setting": "Aspergillus paraciticus; peptide 3.8-60 ug/ml, miconazole 0.2-1.3 ug/ml, Table XXIII", "value": "synergism"}, {"measurement": "interaction with miconazole (observed vs expected inhibition)", "setting": "Aspergillus fumigatus; peptide 1.340 ug/ml, miconazole 0.5-2.0 ug/ml, Table XIX", "value": "synergism"}, {"measurement": "interaction with fluconazole (observed vs expected inhibition)", "setting": "Aspergillus fumigatus; peptide 1.3-20 ug/ml, fluconazole 28.7-229.5 ug/ml, Table XXI", "value": "synergism"}]}
{"molecule": "FRLKFHF [D-amino acid heptapeptide FRLKFHF-NH2]", "values": [{"measurement": "Expected Inhibition (Limpel formula)", "setting": "[1]; [2]", "value": 2.0}, {"measurement": "Observed Inhibition (percentage inhibition)", "setting": "[1]; [2]", "value": 2.0}, {"measurement": "Expected Inhibition (Limpel formula)", "setting": "[1]; [3]", "value": 0.0}, {"measurement": "Observed Inhibition (percentage inhibition)", "setting": "[1]; [3]", "value": 0.0}, {"measurement": "Expected Inhibition (Limpel formula)", "setting": "[1]; [4]", "value": 13.0}, {"measurement": "Observed Inhibition (percentage inhibition)", "setting": "[1]; [4]", "value": 13.0}, {"measurement": "Expected Inhibition (Limpel formula)", "setting": "[1]; [5]", "value": 29.0}, {"measurement": "Observed Inhibition (percentage inhibition)", "setting": "[1]; [5]", "value": 29.0}, {"measurement": "interaction with nystatin (observed vs expected inhibition)", "setting": "[1]; nystatin 0.3-5 ug/ml, peptide 0.6-5 ug/ml, Fusarium oxysporum, Table XIV", "value": "synergism"}, {"measurement": "interaction with miconazole (observed vs expected inhibition)", "setting": "[1]; peptide 1.3-5.0 ug/ml, miconazole 0.6-20 ug/ml, Fusarium oxysporum, Table XVII", "value": "synergism"}, {"measurement": "interaction with amphotericin B (observed vs expected inhibition)", "setting": "Aspergillus paraciticus; peptide 2.5-10 ug/ml, amphotericin B 0.2-0.6 ug/ml, Table XXIV", "value": "synergism"}, {"measurement": "interaction with nystatin (observed vs expected inhibition)", "setting": "Aspergillus paraciticus; peptide 2.5-10 ug/ml, nystatin 0.3-5.0 ug/ml, Table XXVI", "value": "synergism"}, {"measurement": "interaction with fluconazole (observed vs expected inhibition)", "setting": "Aspergillus paraciticus; peptide 2.5-20 ug/ml, fluconazole 7.5-120 ug/ml, Table XXV", "value": "synergism"}, {"measurement": "interaction with fluconazole (observed vs expected inhibition)", "setting": "Aspergillus fumigatus; peptide 1.3-20.0 ug/ml, fluconazole 29-230 ug/ml, Table XVIII", "value": "synergism"}]}
{"molecule": "C[C@@H]1[C@H](O)[C@@H](C)/C=C/C=C/CC/C=C/C=C/C=C/C=C/C(O[C@H]2O[C@H](C)[C@@H](O)[C@H](N)[C@@H]2O)CC2O[C@](O)(CC(O)C(O)CCC(O)CC(O)CC(O)CC(=O)O[C@H]1C)CC(O)C2C(=O)O", "note": "(stereo partly drawn) [Nystatin, nystatin]", "values": [{"measurement": "Expected Inhibition (Limpel formula)", "setting": "[1]; [6]", "value": 6.0}, {"measurement": "Observed Inhibition (percentage inhibition)", "setting": "[1]; [6]", "value": 6.0}, {"measurement": "Expected Inhibition (Limpel formula)", "setting": "[1]; [7]", "value": 3.0}, {"measurement": "Observed Inhibition (percentage inhibition)", "setting": "[1]; [7]", "value": 3.0}, {"measurement": "Expected Inhibition (Limpel formula)", "setting": "[1]; [8]", "value": 4.0}, {"measurement": "Observed Inhibition (percentage inhibition)", "setting": "[1]; [8]", "value": 4.0}, {"measurement": "Expected Inhibition (Limpel formula)", "setting": "[1]; [9]", "value": 1.0}, {"measurement": "Observed Inhibition (percentage inhibition)", "setting": "[1]; [9]", "value": 1.0}, {"measurement": "Expected Inhibition (Limpel formula)", "setting": "[1]; [10]", "value": 16.0}, {"measurement": "Observed Inhibition (percentage inhibition)", "setting": "[1]; [10]", "value": 16.0}, {"measurement": "Expected Inhibition (Limpel formula)", "setting": "[1]; [11]", "value": 100.0}, {"measurement": "Observed Inhibition (percentage inhibition)", "setting": "[1]; [11]", "value": 100.0}, {"measurement": "Expected Inhibition (Limpel formula)", "setting": "[1]; [12]", "value": 100.0}, {"measurement": "Observed Inhibition (percentage inhibition)", "setting": "[1]; [12]", "value": 100.0}]}
{"molecule": "FRLKFH: D-amino acid hexapeptide FRLKFH-NH2", "values": [{"measurement": "interaction with amphotericin B (observed vs expected inhibition)", "setting": "[1]; peptide 5.0-10.0 ug/ml, amphotericin B 0.3-2.0 ug/ml, Fusarium oxysporum, Table XVI", "value": "synergism"}, {"measurement": "interaction with nystatin (observed vs expected inhibition)", "setting": "Aspergillus fumigatus; peptide 4.4-7.5 ug/ml, nystatin 0.6-2.5 ug/ml, Table XXII", "value": "synergism"}, {"measurement": "interaction with miconazole (observed vs expected inhibition)", "setting": "Aspergillus fumigatus; peptide 17.5-70 ug/ml, miconazole 0.3-2.0 ug/ml, Table XX", "value": "synergism"}]}
